Assay results published in patent US9326513B2, “Fungicidal compositions” (Syngenta Participations AG, priority 2011, dated 2016).

How the values were obtained:
Type in all cases: in vivo
Conditions in all cases: foliar, compared to untreated control leaf disks, read-out: disease control
[1] = tested on: Blumeria graminis f. sp. tritici (Erysiphe graminis f. sp. tritici); experiment: Blumeria graminis f. sp. tritici / wheat / leaf disc preventative (powdery mildew on wheat)
Summary of the method: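 Preventative leaf-disc test: compound (200 ppm) was sprayed onto cv. Kanzler wheat segments, which were dusted with conidia from infected plants 1 day after application. After incubation at 20° C and 60% rh, disease control relative to untreated segments was rated 6-8 days after application.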

[2] = tested on: Puccinia recondita f. sp. tritici; experiment: Puccinia recondita f. sp. tritici / wheat / leaf disc curative (brown rust)
Description: Puccinia recondita f. sp. tritici/Wheat/Leaf Disc Curative (Brown Rust) Wheat leaf segments cv. Kanzler are placed on agar in multiwell plates (24-well format). The leaf segments are inoculated with a spore suspension of the fungus. Plates were stored in darkness at 19° C. and 75% rh. The formulated test compound diluted in water was applied 1 day after inoculation.

[3] = tested on: Puccinia recondita f. sp. tritici; experiment: Puccinia recondita f. sp. tritici / wheat / leaf disc preventative (brown rust)
Excerpt: Puccinia recondita f. sp. tritici/Wheat/Leaf Disc Preventative (Brown Rust) Wheat leaf segments cv. Kanzler were placed on agar in multiwell plates (24-well format) and sprayed with the formulated test compound diluted in water. The leaf disks were inoculated with a spore suspension of the fungus 1 day after application.

Pyrenophora teres = Pyrenophora teres / barley / leaf disc preventative (net blotch)
Excerpt: Pyrenophora teres/Barley/Leaf Disc Preventative (Net Blotch) Barley leaf segments cv. Hasso were placed on agar in a multiwell plate (24-well format) and sprayed with the formulated test compound diluted in water. The leaf segments were inoculated with a spore suspension of the fungus 2 days after application.

Measured: pest or weed control at 200 ppm

CCN(C)/C=N/c1cc(Br)c(OC2CCC3CCCCC3C2)nc1C (stereo not shown) [Q.027]
≥ 50%: [1] | [2] | [3] | Pyrenophora teres

Cc1nc(OC(C)c2cc(F)cc(F)c2)c(Br)cc1/N=C/N1CCCC1 (stereo not shown) [Q.193]
≥ 50%: [1] | [2] | [3] | Pyrenophora teres

CCN(C)/C=N/c1cc(Br)c(OC2CCc3ccc(OC)cc3C2)nc1C (stereo not shown) [Q.018]
≥ 50%: [1] | [2] | [3] | Pyrenophora teres

CCN(C)/C=N/c1cc(Br)c(OC(C)Cc2ccccc2C)nc1C (stereo not shown) [Q.353]
≥ 50%: [1] | [2] | [3] | Pyrenophora teres

C=CCCCOc1nc(C)c(/N=C/N(C)CC)cc1Br [Q.034]
≥ 50%: [1] | [2] | [3] | Pyrenophora teres

CCN(C)/C=N/c1cc(Br)c(OCCCC(C)O)nc1C (stereo not shown) [Q.035]
≥ 50%: [1] | [2] | [3] | Pyrenophora teres

CCN(C)/C=N/c1cc(Br)c(OCc2cccc(C#N)c2)nc1C [Q.155]
≥ 50%: [1] | [2] | [3] | Pyrenophora teres

CCN(C)/C=N/c1cc(Br)c(OCc2ccccc2SC)nc1C [Q.335]
≥ 50%: [1] | [2] | [3] | Pyrenophora teres

CCN(C)/C=N/c1cc(Br)c(OC2CCC(OC(=O)C(C)C)CC2)nc1C (stereo not shown) [Q.211]
≥ 50%: [1] | [2] | [3] | Pyrenophora teres

CCN(C)/C=N/c1cc(Br)c(OC(C)CCCc2ccccc2)nc1C (stereo not shown) [Q.201]
≥ 50%: [1] | [2] | [3] | Pyrenophora teres

CCN(C)/C=N/c1cc(Br)c(O[C@H](C)c2cc(F)cc(F)c2)nc1C [Q.261]
≥ 50%: [1] | [2] | [3] | Pyrenophora teres

CCN(C)/C=N/c1cc(Br)c(OC2CCC(C)C2)nc1C (stereo not shown) [Q.167]
≥ 50%: [1] | [2] | [3] | Pyrenophora teres

CCN(C)/C=N/c1cc(C)c(OCCCC(C)C)nc1C [Q.007]
≥ 50%: [1] | [2] | [3] | Pyrenophora teres

CCN(C)/C=N/c1cc(Br)c(OCc2ccc(OC)nc2)nc1C [Q.115]
≥ 50%: [1] | [2] | [3] | Pyrenophora teres

CCN(C)/C=N/c1cc(Br)c(OC(C)c2ccccc2Cl)nc1C (stereo not shown) [Q.301]
≥ 50%: [1] | [2] | [3] | Pyrenophora teres

C=CCCCOc1nc(C)c(/N=C/N(C)CC)cc1C [Q.057]
≥ 50%: [1] | [2] | [3] | Pyrenophora teres

CCN(C)/C=N/c1cc(C(C)C)c(OC(C)c2cc(F)cc(F)c2)nc1C (stereo not shown) [Q.280]
≥ 50%: [1] | [2] | [3] | Pyrenophora teres

CCN(C)/C=N/c1cc(Br)c(OC(C)Cc2cc(C)cc(C)c2)nc1C (stereo not shown) [Q.219]
≥ 50%: [1] | [2] | [3] | Pyrenophora teres

CCN(C)/C=N/c1cc(Br)c(OC2CCC(F)(F)CC2)nc1C [Q.375]
≥ 50%: [1] | [2] | [3] | Pyrenophora teres

CCN(C)/C=N/c1cc(Br)c(OC2Cc3ccc(C)cc3C2)nc1C (stereo not shown) [Q.243]
≥ 50%: [1] | [2] | [3] | Pyrenophora teres

CCN(C)/C=N/c1cc(Br)c(OCCC[Si](C)(C)C)nc1C [Q.015]
≥ 50%: [1] | [2] | [3] | Pyrenophora teres

CCN(C)/C=N/c1cc(OC)c(OC(C)c2cc(F)cc(F)c2)nc1C (stereo not shown) [Q.214]
≥ 50%: [1] | [2] | [3] | Pyrenophora teres

CCN(C)/C=N/c1cc(Br)c(OCc2cc(OC)cc(OC)c2)nc1C [Q.370]
≥ 50%: [1] | [2] | [3] | Pyrenophora teres

C=C(C)CCCOc1nc(C)c(/N=C/N(C)CC)cc1Br [Q.120]
≥ 50%: [1] | [2] | [3] | Pyrenophora teres

CC(=O)N1CCC(Oc2nc(C)c(/N=C/N(C)C)cc2Br)CC1 [Q.055]
≥ 50%: [1] | [2] | [3] | Pyrenophora teres

CCN(C)/C=N/c1cc(Br)c(OCCCC(C)F)nc1C (stereo not shown) [Q.052]
≥ 50%: [1] | [2] | [3] | Pyrenophora teres

C#Cc1cc(/N=C/N(C)CC)c(C)nc1OC(C)c1cc(F)cc(F)c1 (stereo not shown) [Q.229]
≥ 50%: [1] | [2] | [3] | Pyrenophora teres

CCN(C)/C=N/c1cc(Br)c(OC(C)c2ccccc2F)nc1C (stereo not shown) [Q.299]
≥ 50%: [1] | [2] | [3] | Pyrenophora teres

CCN(C)/C=N/c1cc(Br)c(OC(C)CCc2ccc(OC)cc2)nc1C (stereo not shown) [Q.013]
≥ 50%: [1] | [2] | [3] | Pyrenophora teres

CCN(C)/C=N/c1cc(Br)c(OC(C)c2cc(C)no2)nc1C (stereo not shown) [Q.074]
≥ 50%: [1] | [2] | [3] | Pyrenophora teres

CCN(C)/C=N/c1cc(Br)c(OCc2cccc(C(F)F)c2)nc1C [Q.170]
≥ 50%: [1] | [2] | [3] | Pyrenophora teres

CCN(C)/C=N/c1cc(Br)c(OCC#Cc2ccccc2)nc1C [Q.016]
≥ 50%: [1] | [2] | [3] | Pyrenophora teres

C=Cc1ccccc1COc1nc(C)c(/N=C/N(C)CC)cc1Br [Q.275]
≥ 50%: [1] | [2] | [3] | Pyrenophora teres

CCN(C)/C=N/c1cc(Br)c(OC(C)C2CCCc3ccccc32)nc1C (stereo not shown) [Q.227]
≥ 50%: [1] | [2] | [3] | Pyrenophora teres
